Experimental data: patent US20210382058A1, “PATIENT SELECTION FOR TREATMENT OF MYC POSITIVE CANCERS WITH INDENOISOQUINOLINES” (Purdue Research Foundation, priority 2020, published 2021)
Like-named read-outs stand apart in the source and are kept apart here.

How the values were obtained:
[1] = tested on: MYC protein expression in MCF-7 breast cancer cells; test: Western blotting of MYC protein level in MCF-7 cells; assay type: cell-based, human; details: Homo sapiens, MCF7; western blotting, MCF-7 cells, 0.5, 1, 2, and 4 μM, 24 hours; read-out: MYC Inhibition
Procedure, shortened: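 MCF-7 cells were exposed to compounds at 0.5, 1, 2 and 4 μM for 24 hours at 37° C. MYC was detected by immunoblot with ECL, using rabbit anti-MYC (1:1000) and anti-GAPDH (1:2000) as loading control.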

NCI-60 cancer cell lines = test: NCI-60 cancer cell line drug screen (GI50, MGM); assay type: cell-based, human; details: Homo sapiens; for GI50: read-out: Antiproliferative Activities [GI50 (μM)]
Description: Cancer cells were incubated with the test compounds at five concentrations ranging from 100 μM to 10 nM for 48 h. […] The approximate average of GI50 values across the entire panel of NCI-60 cancer cell lines for each compound was recorded as the MGM value.

human topoisomerase I = target: T1, human topoisomerase I (Homo sapiens, UniProt P11387); details: relative topoisomerase I inhibition levels, previously determined, six levels (0 - 5, +++++ = 5); cited from earlier work
T1 sequence (P11387 1-765): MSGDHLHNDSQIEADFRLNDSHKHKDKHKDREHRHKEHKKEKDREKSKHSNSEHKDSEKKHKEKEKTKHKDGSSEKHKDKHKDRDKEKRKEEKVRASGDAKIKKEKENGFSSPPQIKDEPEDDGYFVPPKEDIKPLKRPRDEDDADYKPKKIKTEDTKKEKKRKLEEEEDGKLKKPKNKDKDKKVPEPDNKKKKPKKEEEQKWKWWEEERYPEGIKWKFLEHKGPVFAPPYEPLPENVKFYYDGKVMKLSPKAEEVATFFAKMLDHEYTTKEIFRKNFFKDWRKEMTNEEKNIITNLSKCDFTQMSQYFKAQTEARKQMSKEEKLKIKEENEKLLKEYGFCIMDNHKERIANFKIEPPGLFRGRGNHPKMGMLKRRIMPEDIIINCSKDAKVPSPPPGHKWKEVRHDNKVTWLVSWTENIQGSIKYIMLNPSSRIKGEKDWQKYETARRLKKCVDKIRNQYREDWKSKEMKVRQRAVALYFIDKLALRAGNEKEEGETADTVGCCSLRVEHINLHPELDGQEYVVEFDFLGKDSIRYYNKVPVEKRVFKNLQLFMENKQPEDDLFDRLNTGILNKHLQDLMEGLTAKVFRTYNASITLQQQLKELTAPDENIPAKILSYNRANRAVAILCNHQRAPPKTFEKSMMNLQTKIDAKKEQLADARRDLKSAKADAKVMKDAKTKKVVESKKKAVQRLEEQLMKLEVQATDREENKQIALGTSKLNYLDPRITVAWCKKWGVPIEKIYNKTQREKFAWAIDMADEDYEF

Work on `COc1cc2c(cc1O)-c1c(c3ccc([N+](=O)[O-])cc3c(=O)n1CCCn1ccnc1)C2=O` [Compound 37] yielded a minimal effective concentration [1] of 0.5 to 1 µM, a GI50 (NCI-60 cancer cell lines; 786-0, Renal Cancer, 786-0) of 0.33 µM and a GI50 (NCI-60 cancer cell lines; ACHN, Renal Cancer, ACHN) of 0.31 µM. For the same compound, the GI50 (NCI-60 cancer cell lines; BT-549, Breast Cancer, BT-549) was 0.35 µM, the GI50 (NCI-60 cancer cell lines; CAKI-1, Renal Cancer, CAKI-1) was 0.22 µM and the GI50 (NCI-60 cancer cell lines; CCRF-CEM, Leukemia, CCRF-CEM) was 0.66 µM. It also gave a GI50 (NCI-60 cancer cell lines; COLO 205, Colon Cancer, COLO 205) of 7.9 µM, a GI50 (NCI-60 cancer cell lines; DU-145, Prostate Cancer, DU-145) of 0.33 µM and a GI50 (NCI-60 cancer cell lines; HCC 2998, Colon Cancer, HCC-2998) of 37.1 µM. The GI50 (NCI-60 cancer cell lines; HCT-15, Colon Cancer, HCT-15) was over 100 µM, the GI50 (NCI-60 cancer cell lines; HCT-116, Colon Cancer, HCT-116) was 0.74 µM and the GI50 (NCI-60 cancer cell lines; HL-60, Leukemia, HL-60(TB)) was 0.59 µM. For the same compound, the GI50 (NCI-60 cancer cell lines; HOP-62, Non-Small Cell Lung Cancer, HOP-62) was 0.59 µM, the GI50 (NCI-60 cancer cell lines; HOP-92, Non-Small Cell Lung Cancer, HOP-92) was 13.6 µM and the GI50 (NCI-60 cancer cell lines; HT-29, Colon Cancer, HT29) was 4.08 µM. It also gave a GI50 (NCI-60 cancer cell lines; Hs-578T, Breast Cancer, HS 578T) of over 100 µM, a GI50 (NCI-60 cancer cell lines; IGROV-1, Ovarian Cancer, IGROV1) of 11.3 µM and a GI50 (NCI-60 cancer cell lines; K562, Leukemia, K-562) of 2.25 µM. For the same compound, the GI50 (NCI-60 cancer cell lines; KM12, Colon Cancer, KM12) was 9.39 µM, the GI50 (NCI-60 cancer cell lines; LOX IMVI, Melanoma, LOX IMVI) was 0.3 µM and the GI50 (NCI-60 cancer cell lines; Leukemia, SR) was 0.03 µM. It also gave a GI50 (NCI-60 cancer cell lines; MCF7, Breast Cancer, MCF7) of 0.08 µM, a GI50 (NCI-60 cancer cell lines; MDA-MB-231, Breast Cancer, MDA-MB-231/ATCC) of 18.1 µM and a GI50 (NCI-60 cancer cell lines; MDA-MB-435, Melanoma, MDA-MB-435) of 2.84 µM. The GI50 (NCI-60 cancer cell lines; MOLT-4, Leukemia, MOLT-4) was 0.24 µM, the GI50 (NCI-60 cancer cell lines; Malme-3M, Melanoma, MALME-3M) was 1.79 µM and the GI50 (NCI-60 cancer cell lines; NCI-H23, Non-Small Cell Lung Cancer, NCI-H23) was 0.68 µM. The GI50 (NCI-60 cancer cell lines; NCI-H322M, Non-Small Cell Lung Cancer, NCI-H322M) was 72.6 µM, the GI50 (NCI-60 cancer cell lines; NCI-H460, Non-Small Cell Lung Cancer, NCI-H460) was 0.24 µM and the GI50 (NCI-60 cancer cell lines; NCI-H522, Non-Small Cell Lung Cancer, NCI-H522) was 0.1 µM. The GI50 (NCI-60 cancer cell lines; OVCAR-3, Ovarian Cancer, OVCAR-3) was 1.35 µM, the GI50 (NCI-60 cancer cell lines; OVCAR-4, Ovarian Cancer, OVCAR-4) was 1.41 µM and the GI50 (NCI-60 cancer cell lines; OVCAR-5, Ovarian Cancer, OVCAR-5) was over 100 µM. The GI50 (NCI-60 cancer cell lines; OVCAR-8, Ovarian Cancer, OVCAR-8) was 0.89 µM, the GI50 (NCI-60 cancer cell lines; Ovarian Cancer, NCl/ADR-RES) was over 100 µM and the GI50 (NCI-60 cancer cell lines; Prostate Cancer, PC-3) was 7.22 µM. For the same compound, the GI50 (NCI-60 cancer cell lines; RPMI-8226, Leukemia, RPMI-8226) was 0.7 µM, the GI50 (NCI-60 cancer cell lines; RXF 393, Renal Cancer, RXF 393) was 1.35 µM and the GI50 (NCI-60 cancer cell lines; SF-268, CNS Cancer, SF-268) was 0.27 µM. For the same compound, the GI50 (NCI-60 cancer cell lines; SF-295, CNS Cancer, SF-295) was 0.33 µM, the GI50 (NCI-60 cancer cell lines; SF-539, CNS Cancer, SF-539) was 0.37 µM and the GI50 (NCI-60 cancer cell lines; SK-MEL-2, Melanoma, SK-MEL-2) was 30.8 µM. The GI50 (NCI-60 cancer cell lines; SK-MEL-5, Melanoma, SK-MEL-5) was 1.67 µM, the GI50 (NCI-60 cancer cell lines; SK-MEL-28, Melanoma, SK-MEL-28) was 16.4 µM and the GI50 (NCI-60 cancer cell lines; SK-OV-3, Ovarian Cancer, SK-OV-3) was 0.56 µM. The GI50 (NCI-60 cancer cell lines; SN12C, Renal Cancer, SN12C) was 0.42 µM, the GI50 (NCI-60 cancer cell lines; SNB-19, CNS Cancer, SNB-19) was 12.8 µM and the GI50 (NCI-60 cancer cell lines; SNB-75, CNS Cancer, SNB-75) was 2.97 µM. It also gave a GI50 (NCI-60 cancer cell lines; SW-620, Colon Cancer, SW-620) of 0.81 µM, a GI50 (NCI-60 cancer cell lines; T47D, Breast Cancer, T-47D) of 12 µM and a GI50 (NCI-60 cancer cell lines; TK-10, Renal Cancer, TK-10) of 2.54 µM. For the same compound, the GI50 (NCI-60 cancer cell lines; U-251, CNS Cancer, U251) was 0.27 µM, the GI50 (NCI-60 cancer cell lines; UACC-62, Melanoma, UACC-62) was 0.21 µM and the GI50 (NCI-60 cancer cell lines; UACC-257, Melanoma, UACC-257) was 25.3 µM. The mean GI50 across NCI-60 panel (MGM) (NCI-60 cancer cell lines; average of GI50 values across the entire panel of NCI-60 cancer cell lines) was 1860 nM and the “Top1 Inhibiton” value (human topoisomerase I) was “++ (medium inhibition, ++, MYC expression inhibited at 2.0 μM, or no clear dose-dependent MYC inhibition)”.
